What was measured:
[1] = clinical trial, systemic administration; cited from earlier work
[2] = rodents and apes; cited from earlier work
[3] = 2200 μg/kg, mouse; cited from earlier work
[4] = Dose escalation study of αGalCer; assay type: in vivo
From the text: There is a little, if ever, chance to show a slight systemic side effect (Giaccone et al., Clin. Cancer Res., 8: 3702, 2002).

Question: What does the source list for CCCCCCCCCCCCCCCCCCCCCCCCCC(=O)N[C@@H](CO[C@H]1O[C@H](CO)[C@H](O)[C@H](O)[C@H]1O)[C@H](O)[C@H](O)CCCCCCCCCCCCCC [αGalCer, Alpha-galactosylceramide]?
Answer: side effect [1]: a light headache; toxicity [2]: doesn't seem to induce toxicity; side effects [3]: No side effects; dose-limiting toxicity [4]: did not cause dose-limiting toxicity
